{"source": "patent US12447170B2", "about": "“Use of maribavir in treatment regimens” (priority 2021, dated 2025)", "key": {"[1]": {"system": "CYP1A2 mRNA", "type": "in vitro ADME", "settings": "human, hepatocytes, 72 h", "description": "(§1) Fresh human hepatocytes were treated with culture medium with maribavir concentrations of 36 μM, 144 μM, and 480 μM. […] Incubation was conducted at 37° C. for 72 hours, with daily replacement of medium with compound. […] Analysis of CYP expression was performed using qPCR with CYP-specific probes."}, "[2]": {"system": "CYP2B6 mRNA", "type": "in vitro ADME", "settings": "human, hepatocytes, 72 h", "description": "as §1"}, "[3]": {"target": "T1, P-gp (Homo sapiens, UniProt P08183)", "T1 construct": "P-gp efflux of digoxin (as determined by the corrected efflux ratio) in cultured Caco-2 cells; endogenous in cells; host or cells: Caco-2 cells", "T1 sequence (P08183 whole entry)": "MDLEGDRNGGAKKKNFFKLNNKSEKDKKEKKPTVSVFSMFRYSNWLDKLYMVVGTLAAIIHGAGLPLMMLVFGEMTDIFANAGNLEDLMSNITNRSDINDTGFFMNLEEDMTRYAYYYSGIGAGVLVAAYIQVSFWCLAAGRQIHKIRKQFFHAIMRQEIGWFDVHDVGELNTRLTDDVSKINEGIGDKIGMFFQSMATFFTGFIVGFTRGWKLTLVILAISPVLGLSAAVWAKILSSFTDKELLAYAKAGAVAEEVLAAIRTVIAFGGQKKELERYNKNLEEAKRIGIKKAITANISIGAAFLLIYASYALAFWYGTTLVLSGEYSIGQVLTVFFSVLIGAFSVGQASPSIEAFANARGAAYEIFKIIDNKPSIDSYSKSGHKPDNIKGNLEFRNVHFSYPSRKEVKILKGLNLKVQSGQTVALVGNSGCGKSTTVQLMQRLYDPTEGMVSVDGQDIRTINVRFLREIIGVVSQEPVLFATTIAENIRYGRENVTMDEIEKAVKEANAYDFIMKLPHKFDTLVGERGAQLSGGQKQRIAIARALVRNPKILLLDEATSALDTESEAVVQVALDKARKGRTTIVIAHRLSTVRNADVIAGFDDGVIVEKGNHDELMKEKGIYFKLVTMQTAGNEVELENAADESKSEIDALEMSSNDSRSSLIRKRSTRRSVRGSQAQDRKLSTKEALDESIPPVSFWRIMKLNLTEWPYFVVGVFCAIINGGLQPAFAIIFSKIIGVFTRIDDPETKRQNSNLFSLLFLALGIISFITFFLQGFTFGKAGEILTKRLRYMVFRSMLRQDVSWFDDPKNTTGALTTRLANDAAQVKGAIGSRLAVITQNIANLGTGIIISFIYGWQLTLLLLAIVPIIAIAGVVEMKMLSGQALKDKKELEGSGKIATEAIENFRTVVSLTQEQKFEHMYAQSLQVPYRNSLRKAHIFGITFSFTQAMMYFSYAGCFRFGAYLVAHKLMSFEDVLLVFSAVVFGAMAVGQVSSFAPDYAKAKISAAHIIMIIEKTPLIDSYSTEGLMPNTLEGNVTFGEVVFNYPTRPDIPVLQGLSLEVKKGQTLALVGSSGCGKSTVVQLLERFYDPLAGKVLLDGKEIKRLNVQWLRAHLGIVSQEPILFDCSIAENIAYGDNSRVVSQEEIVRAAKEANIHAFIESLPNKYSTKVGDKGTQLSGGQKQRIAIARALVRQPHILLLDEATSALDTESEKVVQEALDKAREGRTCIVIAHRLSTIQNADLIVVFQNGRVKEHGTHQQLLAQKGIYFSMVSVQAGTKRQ", "test": "Inhibition of P-gp efflux of digoxin in cultured Caco-2 cells", "type": "in vitro ADME", "description": "FIG. 4. Estimation of IC50 of maribavir on P-gp efflux of digoxin (as determined by the corrected efflux ratio) in cultured Caco-2 cells. IC50, half maximal inhibitory concentration; P-gp, P-glycoprotein.\nDrug-drug interaction potential of maribavir with cytochrome P450 enzymes and P-glycoprotein (P-gp) was thoroughly characterized. The reversible inhibition, time-dependent inhibition, and induction of CYPs were evaluated in the presence of maribavir using human cells or human-derived cell lines. The inhibition of P-gp was also assessed."}, "[4]": {"design": "species or system human", "settings": "human, in vivo", "excerpt": "Accumulated data have shown that maribavir is metabolized primarily in the liver, and renal clearance is a minor route (representing less than 5 percent). VP 44469 (N-dealkylated Maribavir) was the principal metabolite of maribavir in both urine and feces. In plasma, unchanged maribavir and VP 44469 represented approximately 69% and 9.8% of total radioactivity, respectively. The hepatic metabolism of maribavir was primarily driven by cytochrome P450s. CYP3A4 and CYP1A2 were responsible for 70 to 85% and 15 to 30% of the CYP-driven pathways, respectively. Glucuronidation accounted for less than 20% of metabolism.\n(§2) Distribution models evaluated included a full PBPK model and a minimal PBPK model, both of which consider liver and intestinal metabolism. Mass balance data from the [^14C] ADME study indicated a fraction absorbed of 0.83 or greater following oral administration of 400 mg dose of maribavir. Absorption models evaluated included a simple first-order absorption model and a more mechanistic “Advanced Dissolution Absorption and Metabolism” (ADAM) model."}, "[5]": {"test": "PBPK model simulation of maribavir alone", "design": "species or system human", "description": "A Physiologically-based Pharmacokinetic (“PBPK”) model based on prior in vitro and in vivo information on the metabolism and kinetics of maribavir was constructed with the aim of predicting plasma concentration-time profiles of maribavir and to evaluate the likely impact of coadministration of CYP3A4 inhibitors and inducers on the kinetics of maribavir in healthy subjects.\nA combination of in vitro data and clinical pharmacokinetic data obtained following a single dose of 400 mg maribavir were used to develop the PBPK model. […] The Cmax was marginally under predicted, which could be expected because the PBPK model was optimized for better prediction of C12h.\nas §2\nA comparison of observed and predicted plasma concentrations of maribavir following single oral doses of 800 mg and 1600 mg to healthy patients […]. […] The simulated and observed maribavir concentrations were in reasonable agreement.\nA comparison of observed and predicted plasma concentrations of maribavir following multiple oral 400 mg BID doses of maribavir was performed. […] The simulated and observed maribavir concentrations were in reasonable agreement."}, "[6]": {"test": "Drug interaction summary: effect of co-administered drugs on maribavir pharmacokinetics (Tables 1-A, 1-B)", "excerpt": "Drug interaction studies were summarized based on Example 2 and other available data (e.g., in vitro and clinical data)."}, "[7]": {"design": "species or system human", "settings": "in vivo", "excerpt": "It can be taken with or without food, and no dose adjustment is needed in patients with mild-to-moderate hepatic impairment or renal impairment. Maribavir has a low drug-interaction potential and there are minimal dose adjustments required (for example, only when taken concurrently with CYP3A4 inducers or certain immunosuppressants) and there are no effects on QT interval."}, "[8]": {"target": "T2, CYP1A2 (Homo sapiens, UniProt P05177)", "T2 sequence (P05177 1-516)": "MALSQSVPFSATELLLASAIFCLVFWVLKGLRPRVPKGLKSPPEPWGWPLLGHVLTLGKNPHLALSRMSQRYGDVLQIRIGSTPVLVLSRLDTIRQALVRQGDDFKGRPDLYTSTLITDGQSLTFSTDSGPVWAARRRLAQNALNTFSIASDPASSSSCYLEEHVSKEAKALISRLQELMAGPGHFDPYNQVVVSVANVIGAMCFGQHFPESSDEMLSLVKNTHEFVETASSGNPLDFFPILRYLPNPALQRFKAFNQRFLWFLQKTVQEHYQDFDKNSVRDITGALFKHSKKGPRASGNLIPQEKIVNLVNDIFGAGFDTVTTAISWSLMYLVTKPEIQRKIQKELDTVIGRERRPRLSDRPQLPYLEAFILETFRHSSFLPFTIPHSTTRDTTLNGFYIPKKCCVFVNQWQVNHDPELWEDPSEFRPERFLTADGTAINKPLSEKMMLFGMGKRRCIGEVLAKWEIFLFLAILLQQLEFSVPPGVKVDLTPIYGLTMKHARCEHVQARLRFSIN", "test": "Time-dependent CYP inhibition (IC50 shift, 30 minute pre-incubation with HLM +/- NADPH)", "type": "in vitro ADME", "design": "from tissue", "settings": "up to 100 μM", "description": "(§3) Time-dependent inhibition (TDI) potentials for various CYP enzymes were evaluated by a 30 minute pre-incubation of maribavir with HLM in the presence and absence of nicotinamide-adenine dinucleotide […] (NADPH) followed by a CYP enzyme activity assay."}, "[9]": {"target": "CYP2C9 (Homo sapiens, UniProt P11712)", "sequence (P11712 whole entry)": "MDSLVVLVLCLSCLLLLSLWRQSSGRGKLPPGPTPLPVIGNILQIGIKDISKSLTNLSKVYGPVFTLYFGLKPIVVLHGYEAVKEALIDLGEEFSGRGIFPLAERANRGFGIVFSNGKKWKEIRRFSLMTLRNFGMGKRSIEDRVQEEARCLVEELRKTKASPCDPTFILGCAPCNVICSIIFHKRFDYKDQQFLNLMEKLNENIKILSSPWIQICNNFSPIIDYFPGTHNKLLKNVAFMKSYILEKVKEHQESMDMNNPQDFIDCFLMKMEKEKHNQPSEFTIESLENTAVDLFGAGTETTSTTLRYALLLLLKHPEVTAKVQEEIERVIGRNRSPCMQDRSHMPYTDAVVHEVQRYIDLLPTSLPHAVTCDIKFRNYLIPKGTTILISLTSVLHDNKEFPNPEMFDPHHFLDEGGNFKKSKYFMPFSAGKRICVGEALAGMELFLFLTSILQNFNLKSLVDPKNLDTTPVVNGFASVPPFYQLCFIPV", "test": "Time-dependent CYP inhibition (IC50 shift, 30 minute pre-incubation with HLM +/- NADPH)", "type": "in vitro ADME", "design": "from tissue", "settings": "up to 100 μM", "description": "as §3"}, "[10]": {"target": "CYP2D6 (Homo sapiens, UniProt P10635)", "sequence (P10635 whole entry)": "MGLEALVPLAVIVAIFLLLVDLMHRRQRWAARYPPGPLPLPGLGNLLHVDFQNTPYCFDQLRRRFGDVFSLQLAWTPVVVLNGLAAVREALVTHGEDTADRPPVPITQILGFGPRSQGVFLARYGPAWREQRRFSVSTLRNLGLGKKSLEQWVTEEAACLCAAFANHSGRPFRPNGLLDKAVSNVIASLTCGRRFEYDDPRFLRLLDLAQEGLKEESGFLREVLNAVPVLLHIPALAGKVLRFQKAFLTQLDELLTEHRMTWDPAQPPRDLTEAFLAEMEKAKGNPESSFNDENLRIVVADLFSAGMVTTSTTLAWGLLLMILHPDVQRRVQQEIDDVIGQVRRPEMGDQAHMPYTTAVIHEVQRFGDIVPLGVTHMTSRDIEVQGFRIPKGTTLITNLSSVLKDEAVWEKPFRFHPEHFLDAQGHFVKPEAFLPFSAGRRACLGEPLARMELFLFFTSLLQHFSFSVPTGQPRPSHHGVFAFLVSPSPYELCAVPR", "test": "Time-dependent CYP inhibition (IC50 shift, 30 minute pre-incubation with HLM +/- NADPH)", "type": "in vitro ADME", "design": "from tissue", "settings": "up to 100 μM", "description": "as §3"}, "[11]": {"settings": "maribavir 400 mg BID alone (Table 7A)"}, "[12]": {"settings": "maribavir 400 mg BID, 5 doses (Table 5A)"}, "[13]": {"settings": "maribavir 400 mg single dose alone (Table 6A)"}, "[14]": {"settings": "maribavir 400 mg single oral dose"}, "[15]": {"settings": "maribavir 800 mg single oral dose"}, "[16]": {"settings": "maribavir 1600 mg single oral dose"}, "[17]": {"settings": "Aluminum hydroxide and magnesium hydroxide antacid 20 mL single dose, maribavir 100 mg single dose"}, "[18]": {"settings": "Ketoconazole 400 mg single dose, maribavir 400 mg single dose"}, "[19]": {"settings": "Rifampin 600 mg once daily, maribavir 400 mg twice daily"}}, "note": "“Also recorded” adds a separate entry of the source.", "data": [{"smiles": "CC(C)Nc1nc2cc(Cl)c(Cl)cc2n1[C@H]1O[C@@H](CO)[C@H](O)[C@@H]1O", "note": "[maribavir, (2S,3S,4R,5S)-2-(5,6-dichloro-2-(isopropylamino)-1H-benzo[d]imidazol-1-yl)-5-(hydroxymethyl)tetrahydrofuran-3,4-diol]", "values": [{"measurement": "CYP1A2 mRNA induction, % of the levels of positive controls", "setting": "[1]", "result": "≤ 11", "unit": "%"}, {"measurement": "CYP2B6 mRNA induction, % of the levels of positive controls", "setting": "[2]", "result": "≤ 11", "unit": "%"}, {"measurement": "IC50", "setting": "[3]", "result": 33.8, "unit": "µM"}, {"measurement": "contribution of CYP1A2 to the CYP-driven pathways", "setting": "[4]", "result": "15-30%"}, {"measurement": "contribution of CYP3A4 to the CYP-driven pathways", "setting": "[4]", "result": "70-85%"}, {"measurement": "share of metabolism by glucuronidation", "setting": "[4]", "result": "less than 20%"}, {"measurement": "share of total radioactivity in plasma", "setting": "[4]", "result": "approximately 69%"}, {"measurement": "AUC(0-12 h), RATIO GEOMETRIC MEAN PREDICTED/OBSERVED", "setting": "[5]; [11]", "result": 1.03}, {"measurement": "AUC(0-12 h), RATIO MEAN PREDICTED/OBSERVED", "setting": "[5]; [11]", "result": 1.06}, {"measurement": "C12 h, RATIO GEOMETRIC MEAN PREDICTED/OBSERVED", "setting": "[5]; [11]", "result": 0.92}, {"measurement": "C12 h, RATIO MEAN PREDICTED/OBSERVED", "setting": "[5]; [11]", "result": 1.14}, {"measurement": "Cmax, RATIO GEOMETRIC MEAN PREDICTED/OBSERVED", "setting": "[5]; [11]", "result": 0.85}, {"measurement": "Cmax, RATIO MEAN PREDICTED/OBSERVED", "setting": "[5]; [11]", "result": 0.84}, {"measurement": "AUC(0-∞), RATIO MEAN PREDICTED/OBSERVED", "setting": "[5]; [12]", "result": 1.07}, {"measurement": "C12 h, RATIO MEAN PREDICTED/OBSERVED", "setting": "[5]; [12]", "result": 1.18}, {"measurement": "Cmax, RATIO MEAN PREDICTED/OBSERVED", "setting": "[5]; [12]", "result": 0.85}, {"measurement": "AUC(0-∞), GEOMEAN RATIO PREDICTED/OBSERVED", "setting": "[5]; [13]", "result": 0.78}, {"measurement": "AUC(0-∞), MEAN RATIO PREDICTED/OBSERVED", "setting": "[5]; [13]", "result": 0.79}, {"measurement": "Cmax, GEOMEAN RATIO PREDICTED/OBSERVED", "setting": "[5]; [13]", "result": 0.61}, {"measurement": "Cmax, MEAN RATIO PREDICTED/OBSERVED", "setting": "[5]; [13]", "result": 0.62}, {"measurement": "AUC(0-∞), RATIO MEAN PREDICTED/OBSERVED", "setting": "[5]; [14]", "result": 1.00}, {"measurement": "Cmax, RATIO MEAN PREDICTED/OBSERVED", "setting": "[5]; [14]", "result": 0.72}, {"measurement": "AUC(0-∞), RATIO MEAN PREDICTED/OBSERVED", "setting": "[5]; [15]", "result": 1.07}, {"measurement": "Cmax, RATIO MEAN PREDICTED/OBSERVED", "setting": "[5]; [15]", "result": 0.91}, {"measurement": "AUC(0-∞), RATIO MEAN PREDICTED/OBSERVED", "setting": "[5]; [16]", "result": 0.90}, {"measurement": "Cmax, RATIO MEAN PREDICTED/OBSERVED", "setting": "[5]; [16]", "result": 0.99}, {"measurement": "Geometric Mean Ratio of Maribavir PK with/without Co-administered Drug (No Effect = 1.00), AUC", "setting": "[6]; [17]", "result": 0.89}, {"measurement": "Geometric Mean Ratio of Maribavir PK with/without Co-administered Drug (No Effect = 1.00), Cmax", "setting": "[6]; [17]", "result": 0.84}, {"measurement": "Geometric Mean Ratio of Maribavir PK with/without Co-administered Drug (No Effect = 1.00), AUC", "setting": "[6]; [18]", "result": 1.53}, {"measurement": "Geometric Mean Ratio of Maribavir PK with/without Co-administered Drug (No Effect = 1.00), Cmax", "setting": "[6]; [18]", "result": 1.10}, {"measurement": "Geometric Mean Ratio of Maribavir PK with/without Co-administered Drug (No Effect = 1.00), AUC", "setting": "[6]; [19]", "result": 0.40}, {"measurement": "Geometric Mean Ratio of Maribavir PK with/without Co-administered Drug (No Effect = 1.00), Cmax", "setting": "[6]; [19]", "result": 0.61}, {"measurement": "Geometric Mean Ratio of Maribavir PK with/without Co-administered Drug (No Effect = 1.00), Ctau", "setting": "[6]; Rifampin 600 mg once daily, maribavir 400 mg twice daily, tau 12 hours", "result": 0.18}, {"measurement": "effects on QT interval", "setting": "[7]", "result": "no effects"}, {"measurement": "time-dependent inhibition (TDI) of CYP1A2", "setting": "[8]", "result": "not a time-dependent inhibitor; also recorded: unlikely a TDI"}, {"measurement": "time-dependent inhibition (TDI) of CYP2C9", "setting": "[9]", "result": "not a time-dependent inhibitor; also recorded: unlikely a TDI"}, {"measurement": "time-dependent inhibition (TDI) of CYP2D6", "setting": "[10]", "result": "not a time-dependent inhibitor; also recorded: unlikely a TDI"}]}]}
